The record followed here is patent US20240116985A1, “STAPLED PEPTIDES AND METHODS THEREOF” (priority 2020, published 2024).

Assay [1] concerns the target T1, full-length beta-Catenin (Uniprot ID P35222) (Homo sapiens, UniProt P35222).
T1 construct: 10 nM full-length beta-Catenin (Uniprot ID P35222)
T1 sequence (P35222 1-781): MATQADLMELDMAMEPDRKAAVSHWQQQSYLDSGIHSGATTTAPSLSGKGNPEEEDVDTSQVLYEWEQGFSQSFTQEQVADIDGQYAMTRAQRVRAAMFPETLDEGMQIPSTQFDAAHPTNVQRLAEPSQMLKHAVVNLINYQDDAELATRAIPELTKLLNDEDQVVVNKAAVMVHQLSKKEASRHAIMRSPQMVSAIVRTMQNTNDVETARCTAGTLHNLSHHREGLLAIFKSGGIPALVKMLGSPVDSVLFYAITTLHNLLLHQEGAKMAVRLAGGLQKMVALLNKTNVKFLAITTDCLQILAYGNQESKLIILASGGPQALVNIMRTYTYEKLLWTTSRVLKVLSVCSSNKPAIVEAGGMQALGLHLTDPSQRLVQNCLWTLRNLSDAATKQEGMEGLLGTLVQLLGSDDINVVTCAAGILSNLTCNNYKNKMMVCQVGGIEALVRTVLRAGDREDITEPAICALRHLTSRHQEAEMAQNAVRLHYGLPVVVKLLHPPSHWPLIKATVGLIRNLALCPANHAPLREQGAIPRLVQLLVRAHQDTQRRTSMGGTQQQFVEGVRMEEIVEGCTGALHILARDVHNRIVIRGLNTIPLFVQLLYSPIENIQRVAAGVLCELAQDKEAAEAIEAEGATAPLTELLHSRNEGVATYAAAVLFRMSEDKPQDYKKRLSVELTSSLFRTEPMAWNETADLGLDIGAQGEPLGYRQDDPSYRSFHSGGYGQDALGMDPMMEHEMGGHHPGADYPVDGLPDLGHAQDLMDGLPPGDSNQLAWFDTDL
The experiment in a line: Fluorescence polarization IC50 (beta-catenin / 5FAM-TCF4 10-53 competition). Format: binding. To be noted: fluorescence polarization; read-out: beta-Catenin FP IC50. A general note: In fluorescence polarisation assays a small probe gives low polarisation when free and higher when bound to something large.

For assay [2], the target named is T2, beta-catenin/TCF4 engagement (Homo sapiens, UniProt P35222).
T2 construct: expressed in transfected cells; host or cells: HEK293
T2 sequence (P35222 1-781): T1 sequence (P35222 1-781)
The experiment in a line: Nano-BRET target engagement assay (B-cat-Halo & TCF4-Luc in HEK293 cells). Format: cell-based. Particulars: absolute IC50; read-out: NanoBRET Abs IC50. In general terms: Bioluminescence resonance energy transfer reports proximity on the nanometre scale.

Regarding `CC(=O)N1CCC[C@]12CC=CCCCC1(CCCC=CCCCOC(=O)N3CC[C@@](C(=O)N[C@@H](Cc4ccsc4)C(=O)N[C@@H](Cc4csc5ccccc45)C(=O)N[C@@H](CCC(N)=O)C(N)=O)(C3)NC(=O)[C@H](CC(C)C)NC(=O)[C@H](Cc3ccccc3)NC(=O)[C@H](C)NC(=O)[C@H](C)NC(=O)[C@H](CCN(CC(=O)O)C(=O)c3ccccn3)NC(=O)[C@H](CC(=O)O)NC1=O)NC(=O)[C@H](CC(C)(C)C)NC(=O)[C@H](CC(=O)O)NC2=O` (stereo partly drawn) [I-2247, Ac-PL3-Asp-Npg-B5-Asp-[Pic]GAbu-Ala-Ala-Phe-Leu-PyrS2-3Thi-BztA-Gln-NH2], the 50% inhibitory concentration (IC50) in assay [1] was determined as 8 nM; in assay [2], 5900 nM.

Consider `CC(=O)N1CCC[C@]12CC=CCCCC1(CCCC=CCCCOC(=O)N3CC[C@@](C(=O)N[C@@H](Cc4ccsc4)C(=O)N[C@@H](Cc4csc5ccccc45)C(=O)N[C@@H](CCC(N)=O)C(N)=O)(C3)NC(=O)[C@H](CC(C)C)NC(=O)[C@H](Cc3ccccc3)NC(=O)[C@H](C)NC(=O)[C@H](C)NC(=O)[C@H](CCN(CC(=O)O)C(=O)c3ccc(CN4CCOCC4)cc3)NC(=O)[C@H](CC(=O)O)NC1=O)NC(=O)[C@H](CC(C)(C)C)NC(=O)[C@H](CC(=O)O)NC2=O` (stereo partly drawn) [I-2248, Ac-PL3-Asp-Npg-B5-Asp-[MeMorphBz]GAbu-Ala-Ala-Phe-Leu-PyrS2-3Thi-BztA-Gln-NH2], for which the IC50 in assay [1] amounted to 8 nM; in assay [2] it was 21500 nM.

Consider `CC(=O)N1CCC[C@]12CC=CCCCC1(CCCC=CCCCOC(=O)N3CC[C@@](C(=O)N[C@@H](Cc4ccsc4)C(=O)N[C@@H](Cc4csc5ccccc45)C(=O)N[C@@H](CCC(N)=O)C(N)=O)(C3)NC(=O)[C@H](CC(C)C)NC(=O)[C@H](Cc3ccccc3)NC(=O)[C@H](C)NC(=O)[C@H](C)NC(=O)[C@H](CCN(CC(=O)O)C(=O)Cc3c(F)c(F)c(F)c(F)c3F)NC(=O)[C@H](CC(=O)O)NC1=O)NC(=O)[C@H](CC(C)(C)C)NC(=O)[C@H](CC(=O)O)NC2=O` (stereo partly drawn) [I-2251, Ac-PL3-Asp-Npg-B5-Asp-[PfPhAc]GAbu-Ala-Ala-Phe-Leu-PyrS2-3Thi-BztA-Gln-NH2], for which the IC50 in assay [1] worked out at 15 nM; in assay [2] it was 6400 nM.

For the compound `CC(=O)N1CCC[C@]12CC=CCCCC1(CCCC=CCCCOC(=O)N3CC[C@@](C(=O)N[C@@H](Cc4ccsc4)C(=O)N[C@@H](Cc4csc5ccccc45)C(=O)N[C@@H](CCC(N)=O)C(N)=O)(C3)NC(=O)[C@H](CC(C)C)NC(=O)[C@H](Cc3ccccc3)NC(=O)[C@H](C)NC(=O)[C@H](C)NC(=O)[C@H](CCN(CC(=O)O)C(=O)c3c(F)c(F)c(F)c(F)c3F)NC(=O)[C@H](CC(=O)O)NC1=O)NC(=O)[C@H](CC(C)(C)C)NC(=O)[C@H](CC(=O)O)NC2=O` (stereo partly drawn) [I-2252, Ac-PL3-Asp-Npg-B5-Asp-[PfBz]GAbu-Ala-Ala-Phe-Leu-PyrS2-3Thi-BztA-Gln-NH2], the IC50 in assay [1] amounted to 31 nM; in assay [2], 17500 nM.

Regarding `CC(=O)N1CCC[C@]12CC=CCCCC1(CCCC=CCCCOC(=O)N3CC[C@@](C(=O)N[C@@H](Cc4ccsc4)C(=O)N[C@@H](Cc4csc5ccccc45)C(=O)N[C@@H](C)C(N)=O)(C3)NC(=O)[C@H](CC(C)C)NC(=O)[C@H](Cc3ccccc3)NC(=O)[C@H](C)NC(=O)[C@H](C)NC(=O)[C@H](Cc3cccc(C(=O)O)c3)NC(=O)[C@H](CC(=O)O)NC1=O)NC(=O)[C@H](CC(C)(C)C)NC(=O)[C@H](CC(=O)O)NC2=O` (stereo partly drawn) [I-2257, Ac-PL3-Asp-Npg-B5-Asp-3COOHF-Ala-Ala-Phe-Leu-PyrS2-3Thi-BztA-Ala-NH2], the IC50 in assay [1] amounted to 15 nM; in assay [2] it was 2900 nM.

In the case of `CC(=O)N1CCC[C@]12CC=CCCCC1(CCCC=CCCCOC(=O)N3CC[C@@](C(=O)N[C@@H](Cc4ccsc4)C(=O)N[C@@H](Cc4csc5ccccc45)C(=O)N[C@@H](C)C(N)=O)(C3)NC(=O)[C@H](Cc3ccccc3)NC(=O)[C@H](Cc3ccccc3)NC(=O)[C@H](C)NC(=O)[C@H](C)NC(=O)[C@H](Cc3cccc(C(=O)O)c3)NC(=O)[C@H](CC(=O)O)NC1=O)NC(=O)[C@H](CC(C)(C)C)NC(=O)[C@H](CC(=O)O)NC2=O` (stereo partly drawn) [I-2259, Ac-PL3-Asp-Npg-B5-Asp-3COOHF-Ala-Ala-Phe-Phe-PyrS2-3Thi-BztA-Ala-NH2], the IC50 in assay [1] was 30 nM; in assay [2] it was 4300 nM.

For the compound `CC(=O)N1CCC[C@]12CC=CCCCC1(CCCC=CCCCOC(=O)N3CC[C@@](C(=O)N[C@@H](Cc4ccsc4)C(=O)N[C@@H](Cc4csc5ccccc45)C(=O)N[C@@H](C)C(N)=O)(C3)NC(=O)[C@H](CC(C)C)NC(=O)[C@H](Cc3cccc(F)c3)NC(=O)[C@H](C)NC(=O)[C@H](C)NC(=O)[C@H](Cc3cccc(C(=O)O)c3)NC(=O)[C@H](CC(=O)O)NC1=O)NC(=O)[C@H](CC(C)(C)C)NC(=O)[C@H](CC(=O)O)NC2=O` (stereo partly drawn) [I-2260, Ac-PL3-Asp-Npg-B5-Asp-3COOHF-Ala-Ala-3FF-Leu-PyrS2-3Thi-BztA-Ala-NH2], the IC50 came out at 21 nM in assay [1] and 3100 nM in assay [2].

Regarding `CC(=O)N1CCC[C@]12CC=CCCCC1(CCCC=CCCCOC(=O)N3CC[C@@](C(=O)N[C@@H](Cc4cccc(F)c4)C(=O)N[C@@H](Cc4csc5ccccc45)C(=O)N[C@@H](C)C(N)=O)(C3)NC(=O)[C@H](CC(C)C)NC(=O)[C@H](Cc3ccccc3)NC(=O)[C@H](C)NC(=O)[C@H](C)NC(=O)[C@H](Cc3cccc(C(=O)O)c3)NC(=O)[C@H](CC(=O)O)NC1=O)NC(=O)[C@H](CC(C)(C)C)NC(=O)[C@H](CC(=O)O)NC2=O` (stereo partly drawn) [I-2261, Ac-PL3-Asp-Npg-B5-Asp-3COOHF-Ala-Ala-Phe-Leu-PyrS2-3FF-BztA-Ala-NH2], the IC50 in assay [1] came to 34 nM; in assay [2], 6400 nM.

Turning to `CC(=O)N1CCC[C@]12CC=CCCCC1(CCCC=CCCCOC(=O)N3CC[C@@](C(=O)N[C@@H](Cc4ccsc4)C(=O)N[C@@H](Cc4csc5ccccc45)C(=O)N[C@@H](C)C(N)=O)(C3)NC(=O)[C@H](CC(C)C)NC(=O)[C@H](Cc3ccc(F)cc3)NC(=O)[C@H](C)NC(=O)[C@H](C)NC(=O)[C@H](Cc3cccc(C(=O)O)c3)NC(=O)[C@H](CC(=O)O)NC1=O)NC(=O)[C@H](CC(C)(C)C)NC(=O)[C@H](CC(=O)O)NC2=O` (stereo partly drawn) [I-2262, Ac-PL3-Asp-Npg-B5-Asp-3COOHF-Ala-Ala-4FF-Leu-PyrS2-3Thi-BztA-Ala-NH2], the IC50 in assay [1] stood at 18 nM; in assay [2], 3700 nM.

In the case of `CC(=O)N1CCC[C@]12CC=CCCCC1(CCCC=CCCCOC(=O)N3CC[C@@](C(=O)N[C@@H](Cc4ccc(F)cc4)C(=O)N[C@@H](Cc4csc5ccccc45)C(=O)N[C@@H](C)C(N)=O)(C3)NC(=O)[C@H](CC(C)C)NC(=O)[C@H](Cc3ccccc3)NC(=O)[C@H](C)NC(=O)[C@H](C)NC(=O)[C@H](Cc3cccc(C(=O)O)c3)NC(=O)[C@H](CC(=O)O)NC1=O)NC(=O)[C@H](CC(C)(C)C)NC(=O)[C@H](CC(=O)O)NC2=O` (stereo partly drawn) [I-2263, Ac-PL3-Asp-Npg-B5-Asp-3COOHF-Ala-Ala-Phe-Leu-PyrS2-4FF-BztA-Ala-NH2], the results for the IC50 in assay [1] and in assay [2] were 47 nM and 4300 nM, respectively.

For `CC(=O)N1CC2CC1C(=O)N[C@@H](CC(=O)O)C(=O)N[C@@H](CC(C)(C)C)C(=O)NC1(CCCCCCCCOC(=O)N3CC[C@@](C(=O)N[C@@H](Cc4ccsc4)C(=O)N[C@@H](Cc4csc5ccccc45)C(=O)N[C@@H](CCC(N)=O)C(N)=O)(C3)NC(=O)[C@H](CC(C)C)NC(=O)[C@H](Cc3ccccc3)NC(=O)[C@H](C)NC(=O)[C@H](C)NC(=O)[C@H](CN(CC(=O)O)CC(F)(F)F)NC(=O)[C@H](CC(=O)O)NC1=O)CCCCCCCC(=O)O2` (stereo partly drawn) [I-2265, Ac-HypEs5-Asp-Npg-B5-Asp-TfeGA-Ala-Ala-Phe-Leu-PyrS2-3Thi-BztA-Gln-NH2], the IC50 is 67 nM in assay [1] and > 20000 nM in assay [2].

Regarding `CC(=O)N1CCC[C@]12CC=CCCCC1(CCCC=CCCCOC(=O)N3CC[C@@](C(=O)N[C@@H](Cc4ccsc4)C(=O)N[C@@H](Cc4csc5ccccc45)C(=O)N[C@@H](CC(N)=O)C(=O)N[C@@H](C)C(=O)NC(C)(C)C(=O)N[C@@H](C)C(=O)NC(C)(C)C(=O)N[C@@H](C)C(N)=O)(C3)NC(=O)[C@H](CC(C)C)NC(=O)[C@H](Cc3ccccc3)NC(=O)[C@H](C)NC(=O)[C@H](C)NC(=O)[C@H](Cc3cccc(C(=O)O)c3)NC(=O)[C@H](CC(=O)O)NC1=O)NC(=O)[C@H](CC(C)(C)C)NC(=O)[C@H](CC(=O)O)NC2=O` (stereo partly drawn) [I-2272, Ac-PL3-Asp-Npg-B5-Asp-3COOHF-Ala-Ala-Phe-Leu-PyrS2-3Thi-BztA-Asn-Ala-Aib-Ala-Aib-Ala-NH2], the IC50 worked out at 43 nM in assay [1] and 3000 nM in assay [2].

Usually IC50 stands for the concentration needed to halve the response being measured.
